Experimental data: ChEMBL document CHEMBL1201862, “PubChem BioAssay data set” (2004)
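In this assay, cells in 96-well plates receive the compound at five concentrations for 48 hours. Endpoints are linearly interpolated between the surrounding concentrations. At the GI50, growth is halved.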 The source made the active and inactive calls. Rule as the data show it: active = GI50 up to about 1.1 µM and inactive = higher.

Key:
Assay in all cases: NCI anticancer screen, dose series, 48 h
786-0 = test system: 786-0
DLD-1 = test system: DLD-1
HCC 2998 = test system: HCC 2998
HT-29 = test system: HT-29
NCI-H226 = test system: NCI-H226
OVCAR-3 = test system: OVCAR-3
SF-268 = test system: SF-268
SN12C = test system: SN12C
SW-620 = test system: SW-620
BT-549 = test system: BT-549
DU-145 = test system: DU-145
Hs-578T = test system: Hs-578T
MCF7 = test system: MCF7
MDA-MB-231 = test system: MDA-MB-231
MDA-MB-435 = test system: MDA-MB-435
MDA-N = test system: MDA-N
NCI/ADR-RES = test system: NCI/ADR-RES
PC-3 = test system: PC-3
SR = test system: SR
T47D = test system: T47D

CC12CCC3(C1)[C@H](CC2=O)C[C@@H](OC(=O)c1ccccc1)C1C(C)(CO)CCC[C@@]13C (stereo partly specified)
GI50 (786-0): 1.82 µM (inactive)
GI50 (DLD-1): 2.48 µM (inactive)
GI50 (HCC 2998): 1.97 µM (inactive)
GI50 (HT-29): 3.56 µM (inactive)
GI50 (NCI-H226): 1.6 µM (inactive)
GI50 (OVCAR-3): 0.24 µM (active)
GI50 (SF-268): 5.11 µM (inactive)
GI50 (SN12C): 4.35 µM (inactive)
GI50 (SW-620): 2.37 µM (inactive)

O=C(O)C12CCCC(CCC1)C2
GI50 (DLD-1): > 100 µM (inactive)
GI50 (HT-29): > 100 µM (inactive)
GI50 (OVCAR-3): > 100 µM (inactive)
GI50 (SF-268): > 100 µM (inactive)
GI50 (SN12C): > 100 µM (inactive)
GI50 (SW-620): > 100 µM (inactive)

O=C1C=C(Br)c2c(Br)sc(Br)c21
GI50 (786-0): 2.53 µM (inactive)
GI50 (BT-549): 6.76 µM (inactive)
GI50 (DU-145): 14.9 µM (inactive)
GI50 (HCC 2998): 13.8 µM (inactive)
GI50 (HT-29): 13.5 µM (inactive)
GI50 (Hs-578T): 30.2 µM (inactive)
GI50 (MCF7): 3.85 µM (inactive)
GI50 (MDA-MB-231): 17.2 µM (inactive)
GI50 (MDA-MB-435): 10 µM (inactive)
GI50 (MDA-N): 13.9 µM (inactive)
GI50 (NCI-H226): 32.5 µM (inactive)
GI50 (NCI/ADR-RES): 12.6 µM (inactive)
GI50 (OVCAR-3): 13.4 µM (inactive)
GI50 (PC-3): 10.9 µM (inactive)
GI50 (SF-268): 18.5 µM (inactive)
GI50 (SN12C): 12.9 µM (inactive)
GI50 (SR): 2.9 µM (inactive)
GI50 (SW-620): 3.13 µM (inactive)
GI50 (T47D): 7.13 µM (inactive)

COC1CCC(O)C(CO)O1 (stereo unspecified)
GI50 (DLD-1): > 100 µM (inactive)
GI50 (HCC 2998): > 100 µM (inactive)
GI50 (HT-29): > 100 µM (inactive)
GI50 (OVCAR-3): 41.4 µM (inactive)
GI50 (SN12C): > 100 µM (inactive)
GI50 (SR): 45.3 µM (inactive)
GI50 (SW-620): 24.3 µM (inactive)

CC(C)(C)[Si](C)(C)OCC1OC(n2cnc3c(N)ncnc32)CC1O (stereo unspecified)
GI50 (BT-549): 32.7 µM (inactive)
GI50 (DU-145): 95.5 µM (inactive)
GI50 (HT-29): > 100 µM (inactive)
GI50 (Hs-578T): 55.5 µM (inactive)
GI50 (MCF7): > 100 µM (inactive)
GI50 (MDA-MB-231): 52.5 µM (inactive)
GI50 (MDA-MB-435): > 100 µM (inactive)
GI50 (MDA-N): > 100 µM (inactive)
GI50 (NCI-H226): 53.1 µM (inactive)
GI50 (NCI/ADR-RES): 40.4 µM (inactive)
GI50 (OVCAR-3): 51.2 µM (inactive)
GI50 (PC-3): 53.1 µM (inactive)
GI50 (SN12C): > 100 µM (inactive)
GI50 (SR): 34.8 µM (inactive)
GI50 (SW-620): > 100 µM (inactive)
GI50 (T47D): 41.6 µM (inactive)

COc1cc2c(cc1OC)CCN=C2
GI50 (BT-549): > 100 µM (inactive)
GI50 (DU-145): > 100 µM (inactive)
GI50 (HCC 2998): > 100 µM (inactive)
GI50 (HT-29): > 100 µM (inactive)
GI50 (Hs-578T): > 100 µM (inactive)
GI50 (MCF7): > 100 µM (inactive)
GI50 (MDA-MB-231): > 100 µM (inactive)
GI50 (MDA-MB-435): > 100 µM (inactive)
GI50 (MDA-N): > 100 µM (inactive)
GI50 (NCI-H226): > 100 µM (inactive)
GI50 (NCI/ADR-RES): > 100 µM (inactive)
GI50 (OVCAR-3): > 100 µM (inactive)
GI50 (PC-3): > 100 µM (inactive)
GI50 (SN12C): > 100 µM (inactive)
GI50 (SR): > 100 µM (inactive)
GI50 (SW-620): > 100 µM (inactive)
GI50 (T47D): > 100 µM (inactive)

Cc1cc(=O)n2nc(CSc3nnc(S)s3)sc2n1
GI50 (786-0): > 100 µM (inactive)
GI50 (BT-549): > 100 µM (inactive)
GI50 (DU-145): > 100 µM (inactive)
GI50 (HCC 2998): > 100 µM (inactive)
GI50 (HT-29): > 100 µM (inactive)
GI50 (Hs-578T): > 100 µM (inactive)
GI50 (MCF7): > 100 µM (inactive)
GI50 (MDA-MB-231): > 100 µM (inactive)
GI50 (MDA-MB-435): > 100 µM (inactive)
GI50 (MDA-N): > 100 µM (inactive)
GI50 (NCI-H226): > 100 µM (inactive)
GI50 (NCI/ADR-RES): > 100 µM (inactive)
GI50 (OVCAR-3): > 100 µM (inactive)
GI50 (PC-3): > 100 µM (inactive)
GI50 (SF-268): > 100 µM (inactive)
GI50 (SN12C): > 100 µM (inactive)
GI50 (SR): > 100 µM (inactive)
GI50 (SW-620): > 100 µM (inactive)
GI50 (T47D): > 100 µM (inactive)

O=c1ccc2nc3cc(Br)ccc3sc-2c1
GI50 (DLD-1): 82.8 µM (inactive)
GI50 (HCC 2998): > 100 µM (inactive)
GI50 (HT-29): > 100 µM (inactive)
GI50 (NCI-H226): > 100 µM (inactive)
GI50 (OVCAR-3): > 100 µM (inactive)
GI50 (SF-268): > 100 µM (inactive)
GI50 (SN12C): > 100 µM (inactive)
GI50 (SR): 33 µM (inactive)
GI50 (SW-620): > 100 µM (inactive)

Cc1cc(-c2nc3cccc(O)c3s2)ccc1N
GI50 (786-0): 34.1 µM (inactive)
GI50 (BT-549): 18.5 µM (inactive)
GI50 (DU-145): > 100 µM (inactive)
GI50 (HCC 2998): 45.3 µM (inactive)
GI50 (HT-29): 36.3 µM (inactive)
GI50 (Hs-578T): 5.75 µM (inactive)
GI50 (MCF7): 12.5 µM (inactive)
GI50 (MDA-MB-231): 31.3 µM (inactive)
GI50 (MDA-MB-435): 17.4 µM (inactive)
GI50 (MDA-N): 31.3 µM (inactive)
GI50 (NCI-H226): 45.1 µM (inactive)
GI50 (NCI/ADR-RES): 21.1 µM (inactive)
GI50 (OVCAR-3): 44.4 µM (inactive)
GI50 (PC-3): 27.7 µM (inactive)
GI50 (SF-268): 17.6 µM (inactive)
GI50 (SN12C): 39.9 µM (inactive)
GI50 (SR): 40.8 µM (inactive)
GI50 (SW-620): 46.9 µM (inactive)
GI50 (T47D): 62.5 µM (inactive)

Cc1ccc2c(c1)C(=O)N(N(C)C)CC(=O)N2
GI50 (DLD-1): > 100 µM (inactive)
GI50 (HCC 2998): > 100 µM (inactive)
GI50 (HT-29): > 100 µM (inactive)
GI50 (NCI-H226): > 100 µM (inactive)
GI50 (OVCAR-3): > 100 µM (inactive)
GI50 (SF-268): > 100 µM (inactive)
GI50 (SR): > 100 µM (inactive)
GI50 (SW-620): > 100 µM (inactive)

Nc1ccc2c(c1)C(=O)N(O)C2=O
GI50 (DLD-1): > 100 µM (inactive)
GI50 (HCC 2998): 92 µM (inactive)
GI50 (HT-29): > 100 µM (inactive)
GI50 (NCI-H226): > 100 µM (inactive)
GI50 (OVCAR-3): > 100 µM (inactive)
GI50 (SF-268): > 100 µM (inactive)
GI50 (SN12C): > 100 µM (inactive)
GI50 (SR): > 100 µM (inactive)
GI50 (SW-620): > 100 µM (inactive)

CC(C)(C)c1cc(O)ccc1O [E319]
GI50 (786-0): > 54.8 µM (inactive)
GI50 (BT-549): > 100 µM (inactive)
GI50 (DU-145): 10.1 µM (inactive)
GI50 (HCC 2998): > 10.5 µM (inactive)
GI50 (HT-29): > 100 µM (inactive)
GI50 (Hs-578T): > 24 µM (inactive)
GI50 (MCF7): > 100 µM (inactive)
GI50 (MDA-MB-231): 1.86 µM (inactive)
GI50 (MDA-MB-435): > 56.8 µM (inactive)
GI50 (MDA-N): > 100 µM (inactive)
GI50 (NCI-H226): > 65.5 µM (inactive)
GI50 (NCI/ADR-RES): > 79.6 µM (inactive)
GI50 (OVCAR-3): 43.6 µM (inactive)
GI50 (PC-3): 1.57 µM (inactive)
GI50 (SF-268): > 18.7 µM (inactive)
GI50 (SN12C): > 100 µM (inactive)
GI50 (SR): 1.1 µM (active)
GI50 (SW-620): 37.8 µM (inactive)
GI50 (T47D): 3.83 µM (inactive)

Cc1cccc(C(C)C)c1NC(=O)CC1Sc2ccccc2NC1=O (stereo unspecified)
GI50 (DLD-1): > 100 µM (inactive)
GI50 (HCC 2998): > 100 µM (inactive)
GI50 (HT-29): 48.9 µM (inactive)
GI50 (NCI-H226): 77.8 µM (inactive)
GI50 (OVCAR-3): > 100 µM (inactive)
GI50 (SF-268): 63 µM (inactive)
GI50 (SN12C): > 100 µM (inactive)
GI50 (SR): 41 µM (inactive)
GI50 (SW-620): 76.4 µM (inactive)

CN(C)/C(=N\C#N)NCc1ccccc1
GI50 (786-0): > 100 µM (inactive)
GI50 (DLD-1): > 100 µM (inactive)
GI50 (HCC 2998): > 100 µM (inactive)
GI50 (HT-29): > 100 µM (inactive)
GI50 (OVCAR-3): > 100 µM (inactive)
GI50 (SF-268): > 100 µM (inactive)
GI50 (SN12C): > 100 µM (inactive)
GI50 (SW-620): > 100 µM (inactive)

CC(NNC(=O)c1cc[n+]([BH2-]C#N)cc1)c1ccccc1F (stereo unspecified)
GI50 (786-0): > 100 µM (inactive)
GI50 (BT-549): > 100 µM (inactive)
GI50 (DU-145): > 100 µM (inactive)
GI50 (HCC 2998): > 100 µM (inactive)
GI50 (Hs-578T): > 100 µM (inactive)
GI50 (MCF7): > 100 µM (inactive)
GI50 (MDA-MB-231): > 100 µM (inactive)
GI50 (MDA-MB-435): > 100 µM (inactive)
GI50 (MDA-N): > 100 µM (inactive)
GI50 (NCI-H226): > 100 µM (inactive)
GI50 (NCI/ADR-RES): > 100 µM (inactive)
GI50 (OVCAR-3): > 100 µM (inactive)
GI50 (PC-3): > 100 µM (inactive)
GI50 (SF-268): > 100 µM (inactive)
GI50 (SN12C): > 100 µM (inactive)
GI50 (SR): > 100 µM (inactive)
GI50 (SW-620): > 100 µM (inactive)
GI50 (T47D): > 100 µM (inactive)

O=c1[nH]c(=O)n(C2CC(O)C(O)C(CO)O2)cc1F (stereo unspecified)
GI50 (786-0): > 100 µM (inactive)
GI50 (DLD-1): > 100 µM (inactive)
GI50 (HCC 2998): > 100 µM (inactive)
GI50 (HT-29): > 100 µM (inactive)
GI50 (NCI-H226): > 100 µM (inactive)
GI50 (OVCAR-3): > 100 µM (inactive)
GI50 (SF-268): > 100 µM (inactive)
GI50 (SN12C): > 100 µM (inactive)
GI50 (SW-620): > 100 µM (inactive)
